The values below come from patent EP0536208B1, “1,2-DIHYDRO-3H-DIBENZISOQUINOLINE-1,3-DIONE ANTICANCER AGENTS” (RESEARCH CORPORATION TECHNOLOGIES, INC., priority 1990, dated 1992).

In one experiment the test system is 2780/AD. Nature of the experiment: In vitro tumor cell viability assay using MTT dye. The experiment is classed as cell-based, Human. On the procedure:
(§1) Compounds of the present invention were tested for their in vitro activity in tumor cells sensitive and resistant to standard anti-cancer agents. The tumor cell lines used in this protocol are 8226 human Myeloma^1; 8226/Dox-40^2, L-1210/Murine Leukemia, multidrug resistant L-210/^3, 2780 Human Ovarian Cancer and 2780/AD^4. Each of these resistant cell lines is known as a multidrug resistant or "MDR" cell line. These cell lines produce a 170,00 molecular weight membrane protein termed the P-glycoprotein which acts as an active drug efflux pump. Thus, once a cell produces the P-glycoprotein, it has the capability of pumping out of the cell a large variety of unrelated natural products. […] The protocol for measuring the effectiveness of compounds of the present invention is as follows: 2) In Vitro Tumor Cell Viability Assays Using MTT-Dye: Tumors are processed into a single cell suspension as described above. The cells are plated at a concentration of 3-5 X 10^4/1 mL well into plastic 96-well plates. […] Afterwards the medium containing the drug is removed, the cells are "washed" by centrifugation in fresh medium or phosphate-buffered saline (pH 7.4). A tetrazolium dye is then added (3,4,5-dimethylthiazol-2-yl)-2,5-diphenyl tetrazolium bromide (MTT). This dye forms a colored formazan product upon activation by mitochondrial reductases in viable cells. Typically, the formazan product is solubilized in acid-propanol or DMSO. The intensity of the color is proportional to viable cell numbers and this is quantitated by spectrophotometric absorbance ([…]) on a micro ELISA plate reader. Test results are calibrated in % control absorbance from untreated tumor cells (Mossman T: J Immunol Meth 65:55-63, 1983). Using the above procedure, Compound 1 was tested for its cytotoxic activity with respect to various tumor cell lines.
Background: Tetrazolium dyes change colour on reduction, which living cells bring about.

In a further experiment the test system is 8226/DOX-40. Nature of the experiment: In vitro tumor cell viability assay using MTT dye. The following applies: for IC50: Homo sapiens. The experiment is classed as cell-based, Human. On the procedure: as §1
A further experiment deals with Colon-38 Adenocarcinoma. Kind of experiment: Tumor growth delay in mice, Colon-38 model. In kind it is in vivo. Particulars: 20mg implants in C57B/mice; 15 mg/kg; d3,6; intraperitoneally. The text has this:
Thus, in the lower level resistant cell lines, such as the ten-fold mitomycin C resistant L1210 and the tenfold adriamycin resistant 2780 ovarian cancer, Compound 1 maintained its complete activity as shown in Table II. The anti-tumor activity of compounds of the present invention in in vivo mouse murine models were studied. 3) Survival Studies In Tumor-Bearing Mice: 3.1 P-388 Leukemia Modles: One million P-388 leukemia cells originally obtained from American Type Culture Collection (Rockville, MD) are implanted into the peritoneum of adult DBA-2J male mice (Jackson Laboratories, Bar Harbor, ME). Twenty four hours later, drugs diluted in physiological saline are injected intraperitoneally at a volume of 0.1 mL/10 g body weight. The mice (10/group) are then followed for survival daily and compared to untreated tumor bearing mice. […] The perpendicular widths of the tumors are measured by caliper thrice weekly and converted to an estimated tumor mass according to the formula: ((1 X W)^2)/(2)= grams of tumor. [formula] wherein • W = width of tumor • l = length of tumor Tumor growth delay is calculated as the difference in days for tumors in treated mice to reach an estimated mass 750 mg or 1.5 g compared to that in untreated controls: Days to reach 750 mg (Treated - Control) = Days of Tumor Growth Delay [formula] […]

The test system of the next experiment is 8226 Human Myeloma. Nature of the experiment: In vitro tumor cell viability assay using MTT dye. In kind it is cell-based. How it is done:
as §1

The subject of another experiment is L-1210/Murine Leukemia. Kind of experiment: In vitro tumor cell viability assay using MTT dye. The following applies: Mus musculus. In kind it is cell-based. On the procedure:
as §1

Values after ≈ are worked out from the molar mass of the structure shown. Where two headings read alike, the source gives them in different places.

In the case of `CN(C)CCN1C(=O)c2cccc3cc4ccccc4c(c23)C1=O` [Compound 1, 2-[2'-(dimethylamino)ethyl]-1,2-dihydro-3H-dibenz(deh)isoquinoline-1,3-dione], the entries for the “Cross Resistance” value in the experiment with 2780/AD (2780/AD versus 2780 Human Ovarian Cancer) and in the experiment on 8226/DOX-40 (8226/DOX-40 versus 8226 Human Myeloma) were “None” and 3-fold, respectively. Moreover, the IC50 in the experiment with 2780/AD (Homo sapiens, 96 h, 2780/AD MDR, P-glycoprotein (+), 10-fold resistance to Doxorubicin, 4-day drug exposure, MTT dye reduction) came to 2.7 µg/mL (≈ 8.48 µM); in the experiment with 8226/DOX-40 (96 h, 8226/DOX-40, 40-fold resistant to Doxorubicin, 4-day drug exposure, MTT dye reduction, read-out: Activity (IC50)), 0.036 µg/mL (≈ 0.113 µM); in the experiment on 8226/DOX-40 (8226 Myeloma Cells Resistant, continuous exposure, MTT dye assay, read-out: IC50 VALUES), 0.03 µg/mL (≈ 0.0942 µM); in the experiment with 8226 Human Myeloma (96 h, 8226 Human Myeloma, 4-day drug exposure, MTT dye reduction, read-out: Activity (IC50)), 0.011 µg/mL (≈ 0.0346 µM); with 8226 Human Myeloma (Homo sapiens, 8226 Myeloma Cells Sensitive, continuous exposure, MTT dye assay, read-out: IC50 VALUES), 0.01 µg/mL (≈ 0.0314 µM); in the experiment with L-1210/Murine Leukemia (144 h, Sensitive L1210, six day MTT assay, continuous drug exposure, read-out: Concentration for 50% inhibition of tumor cells), 0.0025 µg/mL (≈ 0.00785 µM). Moreover, the IC50 in the experiment with L-1210/Murine Leukemia (L1210, 96 h, L-1210/Murine Leukemia, 4-day drug exposure, MTT dye reduction, read-out: Activity (IC50)) was found to be 0.003 µg/mL (≈ 0.00942 µM); in the experiment with L-1210/Murine Leukemia (L1210 Leukemia Cells Sensitive, continuous exposure, MTT dye assay, read-out: IC50 VALUES), 0.0028 µg/mL (≈ 0.00879 µM). Further, the “Experimental Activity, Days of Tumor Growth Delay” value in the experiment with Colon-38 Adenocarcinoma was 6 days TT.
